Drawing on ChEMBL document CHEMBL1156928, “Design of novel nicotinamides as potent and selective monoamine oxidase a inhibitors” (Bioorg Med Chem, 2010), this text covers IC50 for 27 molecules.

Experiment [1] has as its target T1, Amine oxidase [flavin-containing] A (Rattus norvegicus, UniProt P21396).
T1 sequence (P21396 whole entry): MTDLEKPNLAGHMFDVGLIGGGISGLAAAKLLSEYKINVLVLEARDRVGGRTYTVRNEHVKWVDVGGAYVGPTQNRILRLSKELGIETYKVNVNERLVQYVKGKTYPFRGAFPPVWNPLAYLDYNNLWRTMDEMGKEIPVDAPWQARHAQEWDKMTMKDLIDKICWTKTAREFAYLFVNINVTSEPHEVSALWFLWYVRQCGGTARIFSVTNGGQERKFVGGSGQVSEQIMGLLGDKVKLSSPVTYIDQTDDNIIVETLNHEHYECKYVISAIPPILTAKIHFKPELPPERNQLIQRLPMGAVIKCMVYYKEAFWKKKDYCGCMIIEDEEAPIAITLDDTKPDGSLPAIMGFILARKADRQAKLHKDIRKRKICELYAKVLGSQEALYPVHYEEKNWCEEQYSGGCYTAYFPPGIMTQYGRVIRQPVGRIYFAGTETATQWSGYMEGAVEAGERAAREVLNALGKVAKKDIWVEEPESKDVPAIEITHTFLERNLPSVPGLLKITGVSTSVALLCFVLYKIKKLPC
Put plainly: Inhibition of MAOA in Sprague-Dawley rat brain mitochondria using kynuramine substrate by fluorimetry.

Experiment [2] concerns the target T2, Amine oxidase [flavin-containing] B (Rattus norvegicus, UniProt P19643).
T2 sequence (P19643 whole entry): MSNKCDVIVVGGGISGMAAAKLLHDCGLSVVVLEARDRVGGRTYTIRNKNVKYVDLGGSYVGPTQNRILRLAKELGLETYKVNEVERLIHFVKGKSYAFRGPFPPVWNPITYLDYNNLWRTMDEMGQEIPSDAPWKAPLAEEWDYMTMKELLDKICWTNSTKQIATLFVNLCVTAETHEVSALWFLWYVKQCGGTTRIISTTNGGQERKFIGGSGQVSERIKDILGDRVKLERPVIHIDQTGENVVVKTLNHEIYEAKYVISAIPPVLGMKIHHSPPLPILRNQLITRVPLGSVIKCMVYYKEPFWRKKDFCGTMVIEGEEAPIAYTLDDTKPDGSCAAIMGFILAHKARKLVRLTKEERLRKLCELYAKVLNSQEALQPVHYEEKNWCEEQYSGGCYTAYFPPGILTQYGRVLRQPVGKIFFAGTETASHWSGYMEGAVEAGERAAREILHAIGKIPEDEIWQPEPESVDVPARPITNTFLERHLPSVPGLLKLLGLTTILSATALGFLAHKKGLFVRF
The experiment is described as follows: Inhibition of MAOB in Sprague-Dawley rat brain mitochondria using kynuramine substrate by fluorimetry.

Turning to `O=C(NCCN1CCOCC1)c1cnccc1Cl`, the IC50 – broadly, the concentration that inhibits the measured activity by half – in experiment [1] was 0.75 µM; in experiment [2], 74 µM. For `O=C(NCCN1CCOCC1)c1ccc(Cl)cc1` [MOCLOBEMIDE], the concentration for half-maximal inhibition (IC50) in experiment [2] was > 100 µM. For `Cc1ccc(C(=O)NCCCN2CCOCC2)cn1`, the IC50 in experiment [1] and in experiment [2] was > 100 µM throughout. With `O=C(NCCN1CCOCC1)c1cccnc1Cl`, the values for the concentration for half-maximal inhibition (IC50) in experiment [1] and in experiment [2] were 2.6 µM and 1.8 µM, respectively. For `Cc1ccc(C(=O)NCCN2CCOCC2)cn1` the same measures were 86 µM and > 100 µM. For `O=C(NCCCN1CCOCC1)c1cnccc1Cl` the same measures were 7.5 µM and 53 µM. For `O=C(NCCCN1CCOCC1)c1cccnc1Cl` the same measures were 9.4 µM and 6.5 µM. As to `O=C(NCCCN1CCOCC1)c1ccc[nH]c1=O`, the IC50 in experiment [1] and in experiment [2] was > 100 µM each time. In the case of `O=C(NCCCN1CCOCC1)c1c[nH]c(=O)c(Cl)c1`, the IC50 in experiment [1] amounted to 12 µM; in experiment [2], 82 µM. As to `O=C(NCCCN1CCOCC1)c1ccc(Cl)nc1`, the values for the IC50 in experiment [1] and in experiment [2] were 0.38 µM and 75 µM, respectively. With `O=C(NCCCN1CCOCC1)c1cccnc1`, the half-inhibitory concentration (IC50) in experiment [1] and in experiment [2] was > 100 µM throughout. `O=C(NCCN1CCOCC1)c1cnc(Cl)c(Cl)c1`: the 50% inhibitory concentration (IC50) amounted to 0.084 µM in experiment [1] and 48 µM in experiment [2]. For `O=C(NCCN1CCOCC1)c1cnc(O)c(Cl)c1` the same measures were 0.045 µM and 26 µM. With `O=C(NCCN1CCOCC1)c1ccc(Cl)nc1`, the IC50 in experiment [1] came to 0.18 µM; in experiment [2], 34 µM.

Take `O=C(NCCN1CCOCC1)c1cccnc1Br`: the half-inhibitory concentration (IC50) is 8.5 µM in experiment [1] and 0.32 µM in experiment [2]. For `Cc1ccc(C(=O)NCCCN2CCOCC2)c(Cl)n1` the same measures were > 100 µM and > 100 µM.

Turning to `O=C(NCCCN1CCOCC1)c1ccc(O)nc1`, the half-inhibitory concentration (IC50) in experiment [1] is 56 µM; in experiment [2], > 100 µM. The corresponding values for `O=C(NCCN1CCOCC1)c1cccnc1` are 68 µM and > 100 µM.

Regarding `O=C(NCCN1CCOCC1)c1cncc(Br)c1`, the 50% inhibitory concentration (IC50) in experiment [1] worked out at 26 µM; in experiment [2] it was 55 µM. As to `O=C(NCCN1CCOCC1)c1cccnc1O`, the 50% inhibitory concentration (IC50) is 45 µM in experiment [1] and > 100 µM in experiment [2]. For `O=C(NCCN1CCOCC1)c1ccc(=O)[nH]c1` the same measures were 0.43 µM and > 100 µM.

With `O=C(NCCCN1CCOCC1)c1cccnc1Br`, the results for the IC50 in experiment [1] and in experiment [2] were 35 µM and 1.9 µM, respectively. The corresponding values for `O=C(NCCCN1CCOCC1)c1ccc(F)nc1` are 80 µM and > 100 µM.

On to `O=C(NCCN1CCOCC1)c1ccc(F)nc1`, for which the IC50 is 15 µM in experiment [1] and > 100 µM in experiment [2]. As to `O=C(NCCCN1CCOCC1)c1cnc(Cl)c(Cl)c1`, the IC50 was determined as 0.1 µM in experiment [1] and 45 µM in experiment [2]. On to `O=C(NCCCN1CCOCC1)c1cncc(Br)c1`, for which the IC50 in experiment [1] came to 23 µM; in experiment [2], 65 µM.

On to `Cc1ccc(C(=O)NCCN2CCOCC2)c(Cl)n1`, for which the results for the IC50 in experiment [1] and in experiment [2] were 28 µM and > 100 µM, respectively.
